Laboratory results: patent publication US8518993B2, “Combination of bioavailable methionine with at least one essential oil” (Adisseo Ireland Ltd., priority 2005, dated 2013)

Tested on: ileal flora of meat chicken
Assay: Gas production in vitro by ileal contents of meat chicken (wheat-based diet)
Format: cell-based
Source text: The purpose of the following tests is to compare the production of gas by the flora of the ileal contents of meat chicken, in relation to various test parameters. The production of gas is an indirect indicator of the bacterial activity of the ileal flora of the chicken.
50 meat chicken are raised with a wheat-based diet. These chicken are raised with the same nutritional regimen. The chicken are sacrificed on the 35th day, then the contents of their ileum are removed in anaerobic conditions. The contents are placed in bottles which are stored at −18° C.
Based on the experimental design described in Table I below, the volume of gas produced is measured as a function of time.
48 bottles are filled successively with:
the treatment (nothing for the negative control, HMTBA, EO or the test item),
90 ml of buffer solution, containing wheat starch (nutrient medium for the bacteria); the function of this buffer solution is to maintain a constant pH and suppress O2
10 ml of inoculum, comprising a mixture of ¼ of ileal contents and ¾ of sterile physiological solution, which is filtered and homogenized before filling.
The doses tested are calculated to be representative of the concentrations of the products that would be found in the gastrointestinal contents of the animals.
Using the experimental design described in Table I above, curves of the volume of gas produced as a function of time are obtained, and are mostly sigmoidal.
These curves are modelled according to the following model: Y=A/(1+(C/t)^B) where
A, B and C=parameters of the model
Using these equations, we then analyse the modelled final volume Vf (Vf=A), as well as the time for which the rate of production of gas is maximum, called Trm (this time is used as an indirect measure of the latency, which is not accessible with this model). […] If the probability of the treatment effect is significant, i.e. if p<0.05, the means are then compared by the Fisher PLSD test, which makes it possible to establish the differences on the means between the various treatments.
The experimental conditions and parameters of Example 1 are repeated in Example 2, according to Table III below.
The experimental conditions and parameters of example 1 are repeated in Example 3, according to Table V below.
The experimental conditions and parameters of Example 1 are repeated in example 4, according to Table VII below.
For this test, ileal flora derived from 35-day-old chickens fed with a wheat-based diet is used.
In this test, one of the mixtures tested in Example 1 is tested.

[1] = Example 1, wheat-based diet, HMTBA 83 mg, EO 28-50 mg per bottle (Table I), 4 repetitions
[2] = Example 2, HMTBA 83 mg, EO 15 mg (Table III), EO1 red thyme, EO2 tea tree
[3] = Example 3, HMTBA 83 mg, EO 15 mg (Table V), EO1 cinnamon
[4] = Example 4, HMTBA 83 mg, MEO 15 mg (Table VII), MEO 3/4 tea tree and 1/4 cinnamon
[5] = Example 8, HMTBA 113 mg, origanum oil 13 mg (Table XII)

2-hydroxy-4-methylthiobutanoic acid [HMTBA]
Effect on bacterial activity measured by Trm (in words) (Example 1): little if any effect
Trm: time for which the rate of production of gas is maximum, Mean [1]: 10.8 h
Vf: final volume of gas produced, Mean [1]: 565 mL
Trm: time for which the gas production rate is at a maximum, Mean [2]: 20.3 h
Vf: final volume of gas produced, Mean [2]: 296.2 mL
Trm: time for which the gas production rate is at a maximum, Mean [3]: 28.1 h
Vf: final volume of gas produced, Mean [3]: 334.3 mL
Trm: time for which the gas production rate is at a maximum, Mean [4]: 15.4 h
Vf: final volume of gas produced, Mean [4]: 421 mL
Trm difference with the negative control (Example 4, negative control Trm 11.1 h): 4.3 h
Effect on fermentation / activity of the bacterial flora (in words) (Example 8): no significant effect
Trm, Means [5]: 16.2 h
Vf, Means [5]: 353 mL
